Measured values: ChEMBL document CHEMBL3885881, “DrugMatrix”

Organism: Rattus norvegicus
Experiment: DrugMatrix - Regimen: Daily Repeat
Assay type: toxicity, organism-based, Sprague-Dawley
Parameters: regimen Daily Repeat, gender Male, age 6-8 weeks
Details: in vivo, po, route oral GAVAGE, […]; for ABSOLUTE BASOPHIL / ABSOLUTE EOSINOPHIL / ABSOLUTE LYMPHOCYTE / ABSOLUTE MONOCYTE / ABSOLUTE SEGMENTED NEUTROPHIL / BASOPHIL / EOSINOPHIL / ERYTHROCYTE COUNT / HEMATOCRIT / HEMOGLOBIN / LEUKOCYTE COUNT / LYMPHOCYTE / MEAN CORPUSCULAR HEMOGLOBIN / MEAN CORPUSCULAR HEMOGLOBIN CONCENTRATION / MEAN CORPUSCULAR VOLUME / MONOCYTE / NEUTROPHIL / NUCLEATED RED BLOOD CELLS / PLATELET COUNT: tissue Blood; for ALANINE AMINOTRANSFERASE / ALBUMIN / ALKALINE PHOSPHATASE / ASPARTATE AMINOTRANSFERASE / BLOOD UREA NITROGEN / CARBON DIOXIDE / CHLORIDE / CHOLESTEROL / CREATINE PHOSPHOKINASE / CREATININE / GLUCOSE / LACTATE DEHYDROGENASE / LIPASE / PHOSPHORUS / POTASSIUM / SODIUM / TOTAL BILIRUBIN / TOTAL PROTEIN / URIC ACID: tissue Plasma
[1] = 0 mg/kg, 72 h, dose level Control, time 3 day
[2] = 0 mg/kg, 120 h, dose level Control, time 5 day
[3] = 3 mg/kg, 72 h, dose level Low, time 3 day

For `CC#C[C@]1(O)CC[C@H]2[C@@H]3CCC4=CC(=O)CCC4=C3[C@@H](c3ccc(N(C)C)cc3)C[C@@]21C` [MIFEPRISTONE], the “ABSOLUTE BASOPHIL” value [1] was 0 CELLS/uL, the “ABSOLUTE EOSINOPHIL” value [1] was 14 CELLS/uL and the “ABSOLUTE LYMPHOCYTE” value [1] was 11144.67 CELLS/uL. The “ABSOLUTE MONOCYTE” value [1] was 22.5 CELLS/uL, the “ABSOLUTE SEGMENTED NEUTROPHIL” value [1] was 535.5 CELLS/uL and the BASOPHIL [1] was 0%. The EOSINOPHIL [1] was 0.17%, the “ERYTHROCYTE COUNT” value [1] was 5.08 x10E6/uL and the HEMATOCRIT [1] was 32.32%. The HEMOGLOBIN [1] was 12.87 G/DL, the “LEUKOCYTE COUNT” value [1] was 11.72 x10E3/uL and the LYMPHOCYTE [1] was 94.67%. For the same molecule, the “MEAN CORPUSCULAR HEMOGLOBIN” value [1] was 25.37 pg, the “MEAN CORPUSCULAR HEMOGLOBIN CONCENTRATION” value [1] was 39.85 G/DL and the “MEAN CORPUSCULAR VOLUME” value [1] was 63.58 fL. The MONOCYTE [1] was 0.17%, the NEUTROPHIL [1] was 5% and the “NUCLEATED RED BLOOD CELLS” value [1] was 0 /100WBC. For the same molecule, the “PLATELET COUNT” value [1] was 1084 x10E3/uL, the “ALANINE AMINOTRANSFERASE” value [1] was 67.5 u/L and the ALBUMIN [1] was 4.02 G/DL. The “ALKALINE PHOSPHATASE” value [1] was 374.17 u/L, the “ASPARTATE AMINOTRANSFERASE” value [1] was 83.5 u/L and the “BLOOD UREA NITROGEN” value [1] was 14.5 mg/dL. The “CARBON DIOXIDE” value [1] was 30 mmol/L, the CHLORIDE [1] was 100.5 MEQ/L and the CHOLESTEROL [1] was 71.33 mg/dL. For the same molecule, the “CREATINE PHOSPHOKINASE” value [1] was 268.33 u/L, the CREATININE [1] was 0.16 mg/dL and the GLUCOSE [1] was 170.5 mg/dL. For the same molecule, the “LACTATE DEHYDROGENASE” value [1] was 81.17 u/L, the LIPASE [1] was 16.67 u/L and the PHOSPHORUS [1] was 10.07 mg/dL. The POTASSIUM [1] was 5.03 MEQ/L, the SODIUM [1] was 142.92 MEQ/L and the “TOTAL BILIRUBIN” value [1] was 0.17 mg/dL. The “TOTAL PROTEIN” value [1] was 5.63 G/DL, the “URIC ACID” value [1] was 0.5 mg/dL and the “ABSOLUTE BASOPHIL” value [2] was 0 CELLS/uL. For the same molecule, the “ABSOLUTE EOSINOPHIL” value [2] was 37.5 CELLS/uL, the “ABSOLUTE LYMPHOCYTE” value [2] was 8049.5 CELLS/uL and the “ABSOLUTE MONOCYTE” value [2] was 82.83 CELLS/uL. The “ABSOLUTE SEGMENTED NEUTROPHIL” value [2] was 646.83 CELLS/uL, the BASOPHIL [2] was 0% and the EOSINOPHIL [2] was 0.5%. For the same molecule, the “ERYTHROCYTE COUNT” value [2] was 5.36 x10E6/uL, the HEMATOCRIT [2] was 33.9% and the HEMOGLOBIN [2] was 13.02 G/DL. For the same molecule, the “LEUKOCYTE COUNT” value [2] was 8.82 x10E3/uL, the LYMPHOCYTE [2] was 90.17% and the “MEAN CORPUSCULAR HEMOGLOBIN” value [2] was 24.32 pg. The “MEAN CORPUSCULAR HEMOGLOBIN CONCENTRATION” value [2] was 38.42 G/DL, the “MEAN CORPUSCULAR VOLUME” value [2] was 63.32 fL and the MONOCYTE [2] was 1.17%. For the same molecule, the NEUTROPHIL [2] was 8.17%, the “NUCLEATED RED BLOOD CELLS” value [2] was 0.17 /100WBC and the “PLATELET COUNT” value [2] was 1231.5 x10E3/uL. For the same molecule, the “ALANINE AMINOTRANSFERASE” value [2] was 62 u/L, the ALBUMIN [2] was 3.97 G/DL and the “ALKALINE PHOSPHATASE” value [2] was 303.67 u/L. For the same molecule, the “ASPARTATE AMINOTRANSFERASE” value [2] was 84.5 u/L, the “BLOOD UREA NITROGEN” value [2] was 14.83 mg/dL and the “CARBON DIOXIDE” value [2] was 31.83 mmol/L. For the same molecule, the CHLORIDE [2] was 97 MEQ/L, the CHOLESTEROL [2] was 68.83 mg/dL and the “CREATINE PHOSPHOKINASE” value [2] was 411.33 u/L. For the same molecule, the CREATININE [2] was 0.16 mg/dL, the GLUCOSE [2] was 170.17 mg/dL and the “LACTATE DEHYDROGENASE” value [2] was 88.5 u/L. The LIPASE [2] was 9.5 u/L, the PHOSPHORUS [2] was 9.98 mg/dL and the POTASSIUM [2] was 5.72 MEQ/L. The SODIUM [2] was 141.62 MEQ/L, the “TOTAL BILIRUBIN” value [2] was 0.1 mg/dL and the “TOTAL PROTEIN” value [2] was 5.67 G/DL. For the same molecule, the “URIC ACID” value [2] was 0.52 mg/dL, the “ABSOLUTE BASOPHIL” value [3] was 0 CELLS/uL and the “ABSOLUTE EOSINOPHIL” value [3] was 0 CELLS/uL. For the same molecule, the “ABSOLUTE LYMPHOCYTE” value [3] was 9937.33 CELLS/uL, the “ABSOLUTE MONOCYTE” value [3] was 98.67 CELLS/uL and the “ABSOLUTE SEGMENTED NEUTROPHIL” value [3] was 897.33 CELLS/uL. For the same molecule, the BASOPHIL [3] was 0%, the EOSINOPHIL [3] was 0% and the “ERYTHROCYTE COUNT” value [3] was 4.8 x10E6/uL. The HEMATOCRIT [3] was 31.67%, the HEMOGLOBIN [3] was 12.47 G/DL and the “LEUKOCYTE COUNT” value [3] was 10.93 x10E3/uL. For the same molecule, the LYMPHOCYTE [3] was 91.33%, the “MEAN CORPUSCULAR HEMOGLOBIN” value [3] was 25.97 pg and the “MEAN CORPUSCULAR HEMOGLOBIN CONCENTRATION” value [3] was 39.4 G/DL. The “MEAN CORPUSCULAR VOLUME” value [3] was 66.03 fL, the MONOCYTE [3] was 1% and the NEUTROPHIL [3] was 7.67%. For the same molecule, the “NUCLEATED RED BLOOD CELLS” value [3] was 0 /100WBC, the “PLATELET COUNT” value [3] was 1024.33 x10E3/uL and the “ALANINE AMINOTRANSFERASE” value [3] was 67 u/L. For the same molecule, the ALBUMIN [3] was 3.93 G/DL, the “ALKALINE PHOSPHATASE” value [3] was 384 u/L and the “ASPARTATE AMINOTRANSFERASE” value [3] was 83 u/L. The “BLOOD UREA NITROGEN” value [3] was 13 mg/dL, the “CARBON DIOXIDE” value [3] was 30.33 mmol/L and the CHLORIDE [3] was 100.67 MEQ/L. The CHOLESTEROL [3] was 68 mg/dL, the “CREATINE PHOSPHOKINASE” value [3] was 246.67 u/L and the CREATININE [3] was 0.12 mg/dL. The GLUCOSE [3] was 171 mg/dL, the “LACTATE DEHYDROGENASE” value [3] was 78.33 u/L and the LIPASE [3] was 10 u/L. For the same molecule, the PHOSPHORUS [3] was 10.13 mg/dL, the POTASSIUM [3] was 5.79 MEQ/L and the SODIUM [3] was 143.5 MEQ/L. The “TOTAL BILIRUBIN” value [3] was 0.17 mg/dL, the “TOTAL PROTEIN” value [3] was 5.6 G/DL and the “URIC ACID” value [3] was 0.57 mg/dL.
